Measurements: the NIST ThermoML archive (doi:10.1016/j.jct.2004.11.017)
± gives the expanded uncertainty stated by the source.

Columns and labels:
[1] = 101 kPa, Liquid
[2] = xn = mol fraction of the nth substance listed; conditions: 101 kPa, Liquid, x2 = 0

Row | mass density ([1]; 298.15 K) [kg/m3] | mass density ([1]; 303.15 K) [kg/m3] | mass density ([1]; 308.15 K) [kg/m3] | mass density ([1]; 313.15 K) [kg/m3] | mass density ([1]; 318.15 K) [kg/m3] | mass density ([1]; 323.15 K) [kg/m3] | mass density ([1]; 328.15 K) [kg/m3] | mass density ([1]; 333.15 K) [kg/m3] | mass density ([1]; 338.15 K) [kg/m3] | mass density ([1]; 343.15 K) [kg/m3] | mass density ([2]; 298.15 K) [kg/m3] | mass density ([2]; 303.15 K) [kg/m3] | mass density ([2]; 308.15 K) [kg/m3] | mass density ([2]; 313.15 K) [kg/m3] | mass density ([2]; 318.15 K) [kg/m3] | mass density ([2]; 323.15 K) [kg/m3] | mass density ([2]; 328.15 K) [kg/m3] | mass density ([2]; 333.15 K) [kg/m3] | mass density ([2]; 338.15 K) [kg/m3] | mass density ([2]; 343.15 K) [kg/m3] | SMILES
1 | 1010.2 ± 1.4 | 1005.8 ± 1.4 | 1001.4 ± 1.3 | 997 ± 1.3 | 992.6 ± 1.4 | 988.2 ± 1.5 | 983.9 ± 1.5 | 979.5 ± 1.6 | 975.1 ± 1.7 | 970.6 ± 1.8 |  |  |  |  |  |  |  |  |  |  | CC[S+]([O-])CC [diethyl sulfoxide]
2 |  |  |  |  |  |  |  |  |  |  | 996.6 ± 1.3 | 995.2 ± 1.4 | 993.6 ± 1.4 | 991.9 ± 1.4 | 989.7 ± 1.4 | 987.6 ± 1.5 | 985.3 ± 1.5 | 982.8 ± 1.6 | 979.3 ± 1.6 | 977.5 ± 1.6 | O [water] + CC[S+]([O-])CC
